These are literature values, as cited in patent publication US8703048B2, “Buffered swelling media for radiation sterilized hydrophilic coatings” (Coloplast A/S, priority 2008, dated 2014).

For the first data set the following is noted: in water.
Turning to `NCCC(=O)N[C@@H](Cc1cnc[nH]1)C(=O)O` [carnosine], the pKa1 is on record as 2.73, the pKa2 is 6.87 and the pKa3 is listed as 9.73.

In the case of `Nc1ccccc1C(=O)O` [anthranilic acid], the pKa1 is 2.11 and the pKa2 is on record as 4.95. On to `O=C(O)CCCC(=O)O` [glutaric acid], for which the pKa1 is 4.31 and the pKa2 was 5.41.

Still in this data set, the particulars now being: in water; single value given.
For the molecule `O=C(O)CCO` [3-hydroxypropionic acid], the pKa is reported as 3.73.

Turning to `F` [hydrofluoric acid], the pKa is reported as 3.45. Consider `O=C(O)CNC(=O)c1ccccc1` [hippuric acid], for which the pKa was 3.80. On to `N#CO` [cyanic acid], for which the pKa was 3.92. As to `O=C(O)[C@H](O)[C@@H](O)[C@H](O)[C@H](O)CO` [gluconic acid], the pKa is listed as 3.56.
